Converted amounts (≈) assume the structure as drawn.
Assays:
[1] = target: T1, S. aureus topoisomerase IV (Staphylococcus aureus, UniProt P0C1S7+P0C1U9); assay: Topoisomerase IV decatenation assay; assay type: biochemical; settings: IC50 S. aureus topoisomerase IV, decatenation of kinetoplast DNA
T1 construct: purchased Inspiralis, Norwich, UK

[2] = tested on: P. aeruginosa ATCC 15442 and E. coli ATCC 25922; assay: MIC, standard Gram-negative rods as a panel; assay type: cell-based; settings: P. aeruginosa ATCC 15442, E. coli ATCC 25922; read-out: MIC against standard Gram-negative rods (range over strains)
S. epidermidis 4341 = assay: MIC, twofold microdilution, clinical strain; assay type: cell-based; settings: Staphylococcus epidermidis, 18 h
P. aeruginosa 659 = assay: MIC, twofold microdilution, clinical strain; assay type: cell-based; settings: Pseudomonas aeruginosa, 18 h
E. coli 520 = assay: MIC, twofold microdilution, clinical strain; assay type: cell-based; settings: Escherichia coli, 18 h
E. cloacae 8 = assay: MIC, twofold microdilution, clinical strain; assay type: cell-based, Escherichia cloacae; settings: Enterobacter cloacae, 8; clinical strain, 18 h
E. coli 600 = assay: MIC, twofold microdilution, clinical strain; assay type: cell-based, Escherichia coli; settings: Escherichia coli, 600, 18 h
PC3 cells = assay: MTT assay, cytotoxic activity; assay type: cell-based, human; settings: Homo sapiens, PC-3, 72 h, MTT, 72 h
Protocol: Metastatic prostate cancer (PC3) and human immortal keratinocyte (HaCaT) cell lines were purchased from the American Type Culture Collection (ATCC, Rockville, MD, USA) and cultured in MEM (minimal essential medium, Thermo Sci, USA), RPMI 1640 (Roswell Park Memorial Institute, Biowest SAS, France), and DMEM (Dulbecco’s Modified Eagle’s Medium, Biowest SAS, France). Cells were seeded in 6 mL medium in a tissue culture flask (50 mL) in a 37 °C/5% CO2 humidified incubator. […] MTT analysis was performed according to a previous study.[59] Untreated cells were used as controls. Cell absorbance results were inserted into the formula for the relative MTT level (%). It allows to calculate the viability of cells under the influence of the tested compounds. Cell viability was expressed as the percentage of MTT reduction in cells treated with tested compounds compared to the control sample. The relative MTT level was calculated using the formula [100%] = A/B × 100% where A—the test sample absorbance and B—the control sample absorbance.

M. tuberculosis Spec 210 = assay: microbe, parasite or virus in culture; assay type: cell-based, Mycobacterium tuberculosis; settings: M. tuberculosis Spec. 210
P. aeruginosa ATCC 15442 = assay: MIC, twofold microdilution, standard strain; assay type: cell-based, Pseudomonas aeruginosa; settings: Pseudomonas aeruginosa, ATCC15442; standard strain, 18 h
K. pneumoniae 510 = assay: MIC, twofold microdilution, clinical strain; assay type: cell-based, Klebsiella pneumoniae; settings: Klebsiella pneumoniae, 510; clinical strain, 18 h
E. coli ATCC 25922 = assay: MIC, twofold microdilution, standard strain; assay type: cell-based, Escherichia coli; settings: Escherichia coli, ATCC25922; standard strain, 18 h
S. epidermidis 5253 = assay: MIC, twofold microdilution, clinical strain; assay type: cell-based, Staphylococcus epidermidis
M. tuberculosis H37Rv = assay: Tuberculostatic activity, Microplate Alamar Blue Assay (MIC); assay type: cell-based, Mycobacterium tuberculosis; settings: Mycobacterium tuberculosis, H37RV; MABA; read-out: MIC M. tuberculosis H37Rv
P. aeruginosa 37 = assay: MIC, twofold microdilution, clinical strain; assay type: cell-based; settings: Pseudomonas aeruginosa, 18 h
S. aureus ATCC 6538 = assay: MIC, twofold microdilution, standard strain; assay type: cell-based, Staphylococcus aureus; settings: Staphylococcus aureus, ATCC6538; standard strain, 18 h
S. aureus 5595 = assay: MIC, twofold microdilution, clinical strain; assay type: cell-based; settings: Staphylococcus aureus, 18 h
S. aureus T5595 = assay: MIC, twofold microdilution, clinical strain; assay type: cell-based, Staphylococcus aureus; settings: Staphylococcus aureus, T5595, 18 h
S. epidermidis KR4243/1 = assay: MIC, twofold microdilution, clinical strain; assay type: cell-based; settings: Staphylococcus epidermidis, 18 h
S. aureus T5591 = assay: MIC, twofold microdilution, clinical strain; assay type: cell-based, Staphylococcus aureus; settings: Staphylococcus aureus, T5591, 18 h
S. aureus NCTC 4163 = assay: MIC, twofold microdilution, standard strain; assay type: cell-based; settings: Staphylococcus aureus, NCTC4163, 18 h
S. aureus 180 = assay: MIC, twofold microdilution, clinical strain; assay type: cell-based; settings: Staphylococcus aureus, 18 h
[3] = tested on: clinical bacterial strains; assay: MIC, clinical isolates as groups of strains; assay type: cell-based; settings: clinical strains; read-out: MIC against selected E. coli and E. cloacae strains
K. pneumoniae 28 = assay: MIC, twofold microdilution, clinical strain; assay type: cell-based; settings: Klebsiella pneumoniae, 18 h
E. coli 951 = assay: MIC, twofold microdilution, clinical strain; assay type: cell-based; settings: Escherichia coli, 18 h
[4] = MTT assay, cytotoxic activity; assay type: cell-based; settings: human, HaCaT cells (immortal keratinocytes); MTT, 72 h, normal cell line; read-out: IC50 HaCaT
Protocol: Cells were seeded in 6 mL medium in a tissue culture flask (50 mL) in a 37 °C/5% CO2 humidified incubator. […] MTT analysis was performed according to a previous study.[59] Untreated cells were used as controls. Cell absorbance results were inserted into the formula for the relative MTT level (%). It allows to calculate the viability of cells under the influence of the tested compounds. Cell viability was expressed as the percentage of MTT reduction in cells treated with tested compounds compared to the control sample. The relative MTT level was calculated using the formula [100%] = A/B × 100% where A—the test sample absorbance and B—the control sample absorbance.

S. aureus ATCC 25923 = assay: MIC, twofold microdilution, standard strain; assay type: cell-based; settings: Staphylococcus aureus, ATCC25923, 18 h
[5] = tested on: S. epidermidis ATCC 12228; assay: MIC, twofold microdilution, standard strain; assay type: cell-based; settings: Staphylococcus epidermidis, ATCC12228, 18 h
S. pasteuri KR 4358 = assay: MIC, twofold microdilution, clinical strain; assay type: cell-based; settings: Staphylococcus pasteuri, KR4358, 18 h
[6] = tested on: S. epidermidis ATCC 35984; assay: MIC, twofold microdilution, standard strain; assay type: cell-based; settings: Staphylococcus epidermidis, ATCC35984, 18 h
S. aureus ATCC 29213 = assay: MIC, twofold microdilution, standard strain; assay type: cell-based; settings: Staphylococcus aureus, ATCC29213, 18 h
[7] = tested on: M. tuberculosis Spec. 192; assay: Tuberculostatic activity, Microplate Alamar Blue Assay (MIC); assay type: cell-based; settings: Mycobacterium tuberculosis, MABA, read-out: MIC M. tuberculosis Spec. 192 (sensitive to tuberculostatics)

## COc1c(N2C[C@@H]3CCCN[C@@H]3C2)c(F)cc2c(=O)c(C(=O)O)cn(C3CC3)c12 [MXF, moxifloxacin, reference compound]
[1]
  IC50: 3.74 µM

## O=C(O)c1cn(C2CC2)c2cc(N3CCN(C(=O)CBr)CC3)c(F)cc2c1=O [Compound 8, 7-[4-(2-Bromoacetyl)-piperazin-1-yl]-1-cyclopropyl-6-fluoro-4-oxo-1,4-dihydro-quinoline-3-carboxylic Acid]
[2]
  MIC: ≤ 1 µg/mL
S. epidermidis 4341
  MIC: 12.8 µg/mL (≈ 28.3 µM)
P. aeruginosa 659
  MIC: 6.4 µg/mL (≈ 14.2 µM)
E. coli 520
  MIC: 0.2 µg/mL (≈ 0.442 µM)
E. cloacae 8
  MIC: 0.8 µg/mL (≈ 1.77 µM)
E. coli 600
  MIC: 0.2 µg/mL (≈ 0.442 µM)
PC3 cells
  IC50: 39.6 ± 4.3 µM
M. tuberculosis Spec 210
  fold more effective than the reference tuberculostatics: 2–8 fold
P. aeruginosa ATCC 15442
  MIC: 3.2 µg/mL (≈ 7.08 µM)
K. pneumoniae 510
  MIC: 25.6 µg/mL (≈ 56.6 µM)
E. coli ATCC 25922
  MIC: 0.2 µg/mL (≈ 0.442 µM)
S. epidermidis 5253; 18 h
  MIC S. epidermidis 5253: 25.6 µg/mL (≈ 56.6 µM)
S. epidermidis 5253; Staphylococcus epidermidis, 5253, 18 h
  MIC: 12.8 to 25.6 µg/mL (≈ 28.3 to 56.6 µM)
M. tuberculosis H37Rv
  MIC: 32 µg/mL (≈ 70.8 µM)
P. aeruginosa 37
  MIC: 12.8 µg/mL (≈ 28.3 µM)
S. aureus ATCC 6538
  MIC: 0.2 µg/mL (≈ 0.442 µM)
S. aureus 5595
  MIC: 0.4 µg/mL (≈ 0.884 µM)
S. aureus T5595
  MIC: 0.8 µg/mL (≈ 1.77 µM)
S. epidermidis KR4243/1
  MIC: 0.4 µg/mL (≈ 0.884 µM)
S. aureus T5591
  MIC: 1.6 µg/mL (≈ 3.54 µM)
S. aureus NCTC 4163
  MIC: 0.2 µg/mL (≈ 0.442 µM)
S. aureus 180
  MIC: 0.8 µg/mL (≈ 1.77 µM)
[3]
  MIC: 0.1 to 0.8 µg/mL (≈ 0.221 to 1.77 µM)
K. pneumoniae 28
  MIC: > 25.6 µg/mL
E. coli 951
  MIC: 6.4 µg/mL (≈ 14.2 µM)
[4]
  IC50 at 72 h: 44.9 ± 9 µM
S. aureus ATCC 25923
  MIC: 0.2 µg/mL (≈ 0.442 µM)
[5]
  MIC: 0.2 µg/mL (≈ 0.442 µM)
S. pasteuri KR 4358
  MIC: 0.2 µg/mL (≈ 0.442 µM)
[6]
  MIC: 0.2 µg/mL (≈ 0.442 µM)
S. aureus ATCC 29213
  MIC: 0.4 µg/mL (≈ 0.884 µM)
[7]
  MIC: 32 µg/mL (≈ 70.8 µM)
